In brackets after ≈: the same amount, converted by molar mass. Where two headings read alike, the source gives them in different places.
Key:
[1] = system: C. glabrata; experiment: Checkerboard FIC assay in combination with fluconazole (MIC alone and in combination, FICI); format: cell-based, Candida glabrata; conditions: for FICI of combination resulting in fluconazole MIC of: 2 ug/mL / FICI of combination resulting in fluconazole MIC of: 4 ug/mL / FICI of combination resulting in fluconazole MIC of: 8 ug/mL: FICI calculated using a fluconazole MIC of 16 μg/mL; for FICI of combination resulting in fluconazole MIC of: 2 ug/mL (value in parenthesis) / FICI of combination resulting in fluconazole MIC of: 4 ug/mL (value in parenthesis) / FICI of combination resulting in fluconazole MIC of: 8 ug/mL (value in parenthesis): FICI using a fluconazole MIC of 128 μg/mL; for MIC: Nakaseomyces glabratus; for Multiple of compound MIC to synergize fluconazole MIC to 2 ug/mL / Multiple of compound MIC to synergize fluconazole MIC to 4 ug/mL / Multiple of compound MIC to synergize fluconazole MIC to 8 ug/mL: concentration in combination as multiple of the compound's MIC alone; for Multiple of compound MIC to synergize fluconazole MIC to 2 ug/mL: fluconazole MIC 2 ug/mL; for Multiple of compound MIC to synergize fluconazole MIC to 4 ug/mL: fluconazole MIC 4 ug/mL; for Multiple of compound MIC to synergize fluconazole MIC to 8 ug/mL: fluconazole MIC 8 ug/mL; for Concentration of Methylgene compound to synergize fluconazole MIC to 2 ug/mL / Concentration of Methylgene compound to synergize fluconazole MIC to 4 ug/mL / Concentration of Methylgene compound to synergize fluconazole MIC to 8 ug/mL: in combination with fluconazole; for Concentration of Methylgene compound to synergize fluconazole MIC to 2 ug/mL: fluconazole MIC lowered to 2 ug/mL; for Concentration of Methylgene compound to synergize fluconazole MIC to 4 ug/mL: fluconazole MIC lowered to 4 ug/mL; for Concentration of Methylgene compound to synergize fluconazole MIC to 8 ug/mL: fluconazole MIC lowered to 8 ug/mL
Procedure: The ability of the compounds to synergize with azoles against C. glabrata was evaluated by the checkerboard assay, a common laboratory method used to evaluate synergy, antagonism, and indifference using fractional inhibitory concentrations (FICs) and FIC indices (FICI).
The test compounds were supplied as a powder and dissolved in dimethylsulfoxide (DMSO) on the day of assay. Stock solutions were prepared at 640 ug/mL. Fluconazole was dissolved in deionized water to a stock concentration of 320 ug/mL. All test articles were in solution under these conditions.
(§1) The test organisms and reference isolates were streaked for isolation on Sabouraud agar medium (yeasts) or potato dextrose agar (fungi). Colonies were picked by swab from the medium and resuspended in the appropriate broth containing cryoprotectant. The suspensions were aliquoted into cryogenic vials and maintained at −80° C.
(§2) Prior to testing, the yeast isolates were streaked from the frozen vials onto Sabouraud dextrose agar. The plates were incubated overnight at 35° C. The fungal isolate was grown on potato dextrose agar slants and was incubated for 7-10 days at room temperature.
(§3) Both yeast and fungal isolates were tested in RPMI medium buffered with 0.165 M MOPS (3-(N-morpholino)propanesulfonic acid). The pH of the medium was adjusted to 7.0 with 1 N NaOH. The medium was sterile filtered using a 0.2 um PES (polyethersulfone) filter and stored at 4° C. until used.
FIC values were determined using a broth microdilution method (CLSI; 1, 3). To prepare the test plates, automated liquid handlers (Multidrop 384, Labsystems, Helsinki, Finland; Biomek 2000 and Biomek FX, Beckman Coulter, Fullerton Calif.) were used to conduct serial dilutions and liquid transfers.
The wells of standard 96-well microdilution plates (Costar 3795) were filled with 150 uL of DMSO in columns 2-12. Three hundred microliters of each test compound was added to each well in Column 1 of the plates. The Biomek 2000 was used to make eleven 2-fold serial dilutions in each of these “test compound mother” plates. The wells of the “fluconazole mother plates” were filled with 150 uL of sterile water in rows B-H. Row A of these plates was filled with 300 uL of the fluconazole stock solution. Serial 2-fold dilutions were then prepared from top to bottom by hand, using a multichannel pipette in rows B-G. The “daughter plates” were loaded with 180 uL of RPMI using the Multidrop 384. The Biomek FX was used to transfer 5 uL of compound solution from each well of a fluconazole mother plate to the corresponding well in all of the daughter plates in a single step. Then the Biomek FX was used to transfer 5 uL of compound solution from each well of a test compound mother plate to the corresponding well of the corresponding test compound daughter plate (already containing fluconazole at the appropriate concentrations) in a single step. Row H and Column 12 each contained serial dilutions of the test agent and fluconazole alone, respectively, for determination of the MIC.
Standardized inoculum of each organism was prepared per CLSI methods (CLSI; 1, 3). For yeast isolates, colonies were picked from the primary plate and a suspension was prepared in 0.85% saline to equal a 0.5 McFarland turbidity standard. For the fungal isolate, 1 mL of 0.85% saline was dispensed onto a potato dextrose agar slant onto which the isolate had been inoculated 7-10 days previously. Using a swab, a suspension of the fungus was made. After a short time to allow the heavy particles to settle out, a small quantity of the supernatant was dispensed into 0.85% saline and the suspension was adjusted to equal a 0.5 McFarland turbidity standard. Both yeast and fungal isolates were diluted 1:100 in RPMI and then transferred to compartments of sterile reservoirs divided by length (Beckman Coulter). The Biomek 2000 was used to inoculate the plates. […]

[2] = system: Candida albicans; experiment: Minimal Inhibitory Concentration (MIC) assay, broth microdilution per CLSI; format: cell-based; conditions: Candida albicans, read-out: Minimum Inhibitory Concentrations against Yeast Isolates, Candida albicans;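 further: two read times 24 hr and 48 hr of incubation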
Procedure: (§4) The in vitro activities of the inventive compounds (compound(s) herein) against fungi and/or yeasts were determined with isolates Candida albicans, Candida glabrata and Candida parapsilosis. The comparator compounds included fluconazole, caspofungin and amphotericin B.
(§5) The compounds were supplied as a powder, and were dissolved in dimethylsulfoxide (DMSO) the day of assay. Stock solutions were prepared at 10 mg/mL and diluted to a starting stock concentration of 2.56 mg/mL. Amphotericin B was dissolved in DMSO to a stock concentration of 2.56 mg/mL. Fluconazole was dissolved in deionized water to a stock concentration of 2.56 mg/mL. Caspofungin was received as a stock solution of 3.2 mg/mL in DMSO and was diluted to a starting stock concentration of 2.56 mg/mL.
as §1, §2, §3
(§6) The MIC assay method followed the procedure described by the Clinical and Laboratory Standards Institute (CLSI; 1, 2, 3) and employed automated liquid handlers to conduct serial dilutions and liquid transfers. Automated liquid handlers included the Multidrop 384 (Labsystems, Helsinki, Finland), Biomek 2000 and Biomek FX (Beckman Coulter, Fullerton Calif.). The wells in columns 2-12 in standard 96-well microdilution plates (Costar 3795) were filled with 150 ul of 100% DMSO. These would become the ‘mother plates’ from which ‘daughter’ or test plates would be prepared. The compounds (300 uL at 40× the desired top concentration in the test plates) were dispensed into the appropriate well in Column 1 of the mother plates. The Biomek 2000 was used to make serial 1:1 dilutions through Column 11 in the “mother plate”. The wells of Column 12 contained no compounds and were the organism growth control wells.
(§7) The daughter plates were loaded with 185 uL per well of RPMI described above using the Multidrop 384. The daughter plates were prepared using the Biomek FX which transferred 5 μL of the compound solution from each well of a mother plate to the corresponding well of the daughter plate in a single step.
(§8) Standardized inoculum of each organism was prepared per CLSI methods. For yeast isolates, colonies were picked from the streak plate and a suspension was prepared in 0.85% saline. For the fungal isolate, 1 mL of 0.85% saline was dispensed onto the potato dextrose agar slant that had been inoculated 7-10 days previously. Using a swab, a suspension of the fungus was made. After a short time to allow the heavy particles to settle out, a small quantity of the supernatant was dispensed into 0.85% saline and the suspension adjusted to equal a 0.5 McFarland turbidity standard. Both yeast and fungal isolates were diluted 1:100 in RPMI and then transferred to compartments of sterile reservoirs divided by length (Beckman Coulter). The Biomek 2000 was used to inoculate the plates. Daughter plates were placed on the Biomek 2000 work surface reversed so that inoculation took place from low to high compound concentration. The Biomek 2000 delivered 10 μL of standardized inoculum into each well. Thus, the wells of the daughter plates ultimately contained 185 uL of RPMI, 5 uL of the compound solution, and 10 uL of inoculum. […]

[3] = system: Candida parapsilosis; experiment: as above; format: cell-based; conditions: Lodderomyces parapsilosis, read-out: Minimum Inhibitory Concentrations against Yeast Isolates, Candida parapsilosis;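 further: two read times 24 hr and 48 hr of incubation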
Procedure: as §4, §5, §1, §2, §3, §6, §7, §8

[4] = system: Candida glabrata; experiment: as above; format: cell-based; conditions: Nakaseomyces glabratus, read-out: Minimum Inhibitory Concentrations against Yeast Isolates, Candida glabrata;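 further: two read times 24 hr and 48 hr of incubation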
Procedure: as §4, §5, §1, §2, §3, §6, §7, §8

[5] = MIC of the example compound alone against C. glabrata in the checkerboard assay, approximately 48 hr, read-out: Methylgene MIC
[6] = test compound alone, C. glabrata, approx. 48 hr at 35° C., read-out: Compound MIC
[7] = 24 hr reading (first value of cell 24 hr/48 hr)
[8] = 48 hr reading (second value of cell 24 hr/48 hr)

SMILES	FICI of combination resulting in fluconazole MIC of: 2 ug/mL ([1]; C. glabrata)	FICI of combination resulting in fluconazole MIC of: 4 ug/mL ([1]; C. glabrata)	FICI of combination resulting in fluconazole MIC of: 8 ug/mL ([1]; C. glabrata)	FICI of combination resulting in fluconazole MIC of: 2 ug/mL (value in parenthesis) ([1]; C. glabrata)	FICI of combination resulting in fluconazole MIC of: 4 ug/mL (value in parenthesis) ([1]; C. glabrata)	FICI of combination resulting in fluconazole MIC of: 8 ug/mL (value in parenthesis) ([1]; C. glabrata)	MIC [1, 5] [µg/mL]	MIC [1, 6] [µg/mL]	Multiple of compound MIC to synergize fluconazole MIC to 2 ug/mL [1]	Multiple of compound MIC to synergize fluconazole MIC to 4 ug/mL [1]	Multiple of compound MIC to synergize fluconazole MIC to 8 ug/mL [1]	Concentration of Methylgene compound to synergize fluconazole MIC to 2 ug/mL ([1]; C. glabrata) [µg/mL]	Concentration of Methylgene compound to synergize fluconazole MIC to 4 ug/mL ([1]; C. glabrata) [µg/mL]	Concentration of Methylgene compound to synergize fluconazole MIC to 8 ug/mL ([1]; C. glabrata) [µg/mL]	MIC [2, 7] [µg/mL]	MIC [2, 8] [µg/mL]	MIC [3, 7] [µg/mL]	MIC [3, 8] [µg/mL]	MIC [4, 7] [µg/mL]	MIC [4, 8] [µg/mL]
O=C(Cc1ccc(CCCCc2ccc(-c3ccccc3)cc2)cc1)NO [Example 5, 2-(4-(4-(biphenyl-4-yl)butyl)phenyl)-N-hydroxyacetamide]	0.125	0.155	0.280	0.078	0.061	0.093	4	4	( 1/16x)	( 1/16x)	( 1/16x)	0.25	0.12	0.12	> 8	> 8	> 8	> 8	0.5 (≈ 1.39 µM)	8 (≈ 22.3 µM)
Cn1ccc2cc(CCCCc3ccc(CC(=O)NO)cc3)ccc21 [Example 6, N-hydroxy-2-(4-(4-(1-methyl-1H-indol-5-yl)butyl)phenyl) acetamide]	0.313	0.245	0.370	0.266	0.151	0.183	1	1	(¼x)	(⅛x)	(⅛x)	0.25	0.12	0.12	0.5 (≈ 1.49 µM)	0.5 (≈ 1.49 µM)	> 4	> 4	0.25 (≈ 0.743 µM)	0.5 (≈ 1.49 µM)
